Results: patent US7250417B2, “Arylmethyl triazolo- and imidazopyrazines as c-Met inhibitors” (Sugen Inc., priority 2003, dated 2007)
“And” between values parts separate entries of the source, which are not always exact repeats. Equal entries are not always repeated.

molecular target: T1, c-MET (purified GST fusion protein containing the Met kinase domain) (Homo sapiens, UniProt P08581); test: Met transphosphorylation assay (ELISA, poly(Glu,Tyr) 4:1 substrate); assay type: biochemical; details: purified GST-Met kinase domain 10 ng/well
T1 construct: Purified GST fusion protein containing the Met kinase domain, Sugen, Inc
Method: Met Transphosphorylation Assay
This assay is used to measure phosphotyrosine levels on a poly(glutamic acid:tyrosine (4:1)) substrate as a means for identifying agonists/antagonists of met transphosphorylation of the substrate.
• 1. […] PBS, Gibco Catalog #450-1300EB • 4. 50 mM HEPES • 5. […] Purified GST fusion protein containing the Met kinase domain, Sugen, Inc. • 7. TBST Buffer. • 8. 10% aqueous (MilliQue H2O) DMSO. • 9. […] 2× Kinase Dilution Buffer: for 100 ml, mix 10 mL 1 M HEPES at pH 7.5 with 0.4 mL 5% BSA/PBS, 0.2 mL 0.1 M sodium orthovanadate and 1 mL 5M sodium chloride in 88.4 mL dH2O. • 11. 4× ATP Reaction Mixture: for 10 mL, mix 0.4 mL 1 M manganese chloride and 0.02 mL 0.1 M ATP in 9.56 mL dH2O. • 12. 4× Negative Controls Mixture: for 10 mL, mix 0.4 mL 1 M manganese chloride in 9.6 mL dH2O. • 13. […] 500 mM EDTA. • 15. Antibody Dilution Buffer: for 100 mL, mix 10 mL 5% BSA/PBS, 0.5 mL 5% Camation Instant Milk® in PBS and 0.1 mL 0.1 M sodium orthovanadate in 88.4 mL TBST. • 16. Rabbit polyclonal antophosphotyrosine antibody, Sugen, Inc. • 17. Goat anti-rabbit horseradish peroxidase conjugated antibody, Biosource, Inc. • 18. ABTS Solution: for 1 L, mix 19.21 g citric acid, 35.49 g Na2HPO4 and 500 mg ABTS with sufficient dH2O to make 1 L. • 19. ABTS/H2O2: mix 15 mL ABST solution with 2ILL H2O2 five minutes before use. • 20. 0.2 M HCl Procedure: • 1. Coat ELISA plates with 2 μg Poly(Glu-Tyr) in 100 pL PBS, store overnight at 4° C. • 2. Block plate with 150 μL of 5% BSA/PBS for 60 min. • 3. Wash plate twice with PBS, once with 50 mM Hepes buffer pH 7.4. • 4. Add 50 μl of the diluted kinase to all wells. (Purified kinase is diluted with Kinase Dilution Buffer. Final concentration should be 10 ng/well.) • 5. Add 25 μL of the test compound (in 4% DMSO) or DMSO alone (4% in dH2O) for controls to plate. • 6. Incubate the kinase/compound mixture for 15 minutes. • 7. Add 25 μL of 40 mM MnCl2to the negative control wells. • 8. Add 25 μL ATP/MnCl2 mixture to the all other wells (except the negative controls). Incubate for 5 min. • 9. Add 25 μL 500 mM EDTA to stop reaction. • 10. Wash plate 3× with TBST. 11. Add 100 μL rabbit polyclonal anti-Ptyr diluted 1:10,000 in Antibody Dilution Buffer to each well. Incubate, with shaking, at room temperature for one hour. • 12. Wash plate 3× with TBST. • 13. […] Add 100 μL per well and incubate at room temperature, with shaking, for one hour. • 14. Wash plate 1× with PBS. • 15. Add 100 μl of ABTS/H2O2 solution to each well. • 16. If necessary, stop the development reaction with the addition of 100 μl of 0.2M HCl per well. • 17.

T1 sequence (P08581 1078-1345 limits assumed): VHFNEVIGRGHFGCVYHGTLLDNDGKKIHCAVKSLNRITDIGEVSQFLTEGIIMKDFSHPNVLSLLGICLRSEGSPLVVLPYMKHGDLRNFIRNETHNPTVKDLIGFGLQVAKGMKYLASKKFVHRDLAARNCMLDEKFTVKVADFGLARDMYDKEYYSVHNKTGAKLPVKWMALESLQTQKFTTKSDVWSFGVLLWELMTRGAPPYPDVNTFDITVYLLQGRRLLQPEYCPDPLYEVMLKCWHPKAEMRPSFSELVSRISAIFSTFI

Row | SMILES | IC50
1 | Fc1ccc(Cn2nnc3ncc(Br)nc32)cc1 [Example 8, 6-Bromo-1-(4-fluoro-benzyl)-1H-[1,2,3]triazolo[4,5-b]pyrazine] | 310 nM and 1710 nM
2 | COc1ccc(Cn2cnc3ncc(Br)cc32)cc1 [Example 13, 6-Bromo-1-(4-methoxy-benzyl)-1H-imidazo[4,5-b]pyridine] | > 20000 nM
3 | Fc1ccc(Cn2cnc3ncc(-c4ccc(OCCN5CCOCC5)cc4)nc32)cc1 [Example 7, 1-(4-Fluoro-benzyl)-6-[4-(2-morpholin-4-yl-ethoxy)-phenyl]-1H-imidazo[4,5-b]pyrazine] | > 20000 nM
4 | Fc1ccc(Cn2cnc3ncc(-c4cccc(OCCN5CCOCC5)c4)nc32)cc1 [Example 6, 1-(4-Fluoro-benzyl)-6-[3-(2-morpholin-4-yl-ethoxy)-phenyl]-1H-imidazo[4,5-b]pyrazine] | > 20000 nM
5 | Fc1ccc(Cn2cnc3ncc(-c4ccc(F)cc4)nc32)cc1 [Example 5, 1-(4-Fluoro-benzyl)-6-(4-fluoro-phenyl)-1H-imidazo[4,5-b]pyrazine] | > 20000 nM

Results, then the compound that gave them:

Row | IC50 | SMILES
6 | > 20000 nM | Fc1ccc(Cn2cnc3ncc(-c4cccs4)nc32)cc1 [Example 4, 1-(4-Fluoro-benzyl)-6-thiophen-2-yl-1 H-imidazo[4,5-b]pyrazine]
7 | 1000 nM | Fc1ccc(Cn2nnc3ncc(-c4cccc(OCCN5CCOCC5)c4)nc32)cc1 [Example 10, 1-(4-Fluoro-benzyl)-6-[3-(2-morpholin-4-yl-ethoxy)-phenyl]-1H-[1,2,3]triazolo[4,5-b]pyrazine]
8 | 9600 nM | Oc1ccc(Cn2cnc3ncc(Br)cc32)cc1 [Example 14, 4-(6-Bromo-imidazo[4,5-b]pyridin-1-ylmethyl)-phenol]
9 | 1150 nM | Fc1ccc(Cn2nnc3ncc(-c4cc5ccccc5[nH]4)nc32)cc1 [Example 12, 1-(4-Fluoro-benzyl)-6-(1H-indol-2-yl)-1H-[1,2,3]triazolo[4,5-b]pyrazine]
10 | 170 nM | Fc1ccc(Cn2nnc3ncc(-c4ccc(OCCN5CCOCC5)cc4)nc32)cc1 [Example 11, 1-(4-Fluoro-benzyl)-6-[4-(2-morpholin-4-yl-ethoxy)-phenyl]-1H-[1,2,3]triazolo[4,5-b]pyrazine]
11 | 150 nM | Oc1ccc(Cn2cnc3ncc(-c4cccs4)nc32)cc1 [Example 1, 4-(6-Thiophen-2-yl-imidazo[4,5-b]pyrazin-1-ylmethyl)-phenol]
12 | 1790 nM | COc1ccc(Cn2cnc3ncc(-c4ccc(F)cc4)nc32)cc1 [Example 2, 6-(4-Fluoro-phenyl)-1-(4-methoxy-benzyl)-1H-imidazo[4,5-b]pyrazine]
13 | 160 nM | Fc1ccc(Cn2nnc3ncc(-c4cccs4)nc32)cc1 [Example 9, 1-(4-Fluoro-benzyl)-6-thiophen-2-yl-1H-[1,2,3]triazolo[4,5-b]pyrazine]
